# Experimental data published in patent US20120328602A1, “COMPOSITIONS AND METHODS FOR TREATING CONDITIONS ASSOCIATED WITH CERAMIDE BIOSYNTHESIS” (priority 2007, published 2012).
# “Also recorded” adds a separate entry of the source. Where two headings read alike, the source gives them in different places.
# How the values were obtained:
# mice [1] = assay type: in vivo; conditions: for % MPE for acute morphine: acute morphine 3 mg/kg s.c. on day five
# ceramide [2] = test: ceramide in spinal cord dorsal horn by immunohistochemistry and ESI-MS/MS (Example 1); assay type: in vivo, mice
# mice [3] = assay type: in vivo, male CD-1 mice
# mice [4] = test: hot plate, morphine-induced antinociceptive tolerance (Examples 3-5); assay type: in vivo, Male CD-1 mice; conditions: for % MPE: n=6
# Method: Nociceptive thresholds were determined by measuring latencies (in seconds) of mice placed in a transparent glass cylinder on a hot plate (Ugo Basile, Italy) maintained at 52° C. Determination of antinociception was assessed between 7 and 10:00 A.M. All injections were given intra-peritoneally (i.p.) or subcutaneously (s.c.) in a volume of 0.1 and 0.3 ml, respectively, at approximately 7 A.M. and 4 P.M. Responses indicative of nociception included intermittent lifting and/or licking of the hindpaws or escape behavior. […] Results were expressed as percentage of maximum possible antinociceptive effect, which was calculated as follows: (response latency−baseline latency)/(cut-off latency−baseline latency)×100. A cut-off latency of twenty seconds was employed to prevent tissue damage. Ten mice per group were used and all experiments were conducted with the experimentors blinded to treatment conditions. […] The following experimental groups were used: […]
# Vehicle (V) Group: In this group, mice were injected twice per day for four days with an i.p, injection of saline and a s.c. injection of saline.
# peroxynitrite = test: 3-nitrotyrosine (NT) staining in dorsal horn as marker of peroxynitrite; assay type: in vivo, mice
# Source text: . Detection of NT in this setting can therefore be reliably used as marker of peroxynitrite. […]; FIG. 8c), evidence of the contribution of ceramide in the production of spinal peroxynitrite.
# [5] = system: manganese superoxide dismutase (MnSOD); test: MnSOD nitration by immunoprecipitation and western blot; assay type: in vivo, mice
# Method: Animals were rapidly sacrificed (<1 min) in a CO2 chamber and the dorsal portion of the spinal cord lumbar region enlargement removed and stored at −80° C. until used. Cytosolic and nuclear extracts were prepared as previously described (Bethea et al., 1998), with minor modifications. Tissues from each mouse were suspended in extraction Buffer A (0.2 mM PMSF, […], 20 μM leupeptin, 1 mM sodium orthovanadate), homogenized for two minutes, and centrifuged at 1,000×g for ten minutes at 4° C. Supernatants were collected as the cytosolic fraction. […] The levels of IκB-α, phospho-NF-κB p65 (serine 536), were quantified in cytosolic fraction from spinal cord tissue, while NF-κB p65 levels were quantified in nuclear fraction. […] Manganese superoxide dismutase (MnSOD) nitration was determined with western blot analysis of immunoprecipitated protein complex in total lysates using antibodies specific to these proteins. […] The relative expression of the protein levels as the band density for IκB-α (˜37 kDa), phospho NF-κB (65 kDa), NF-κB p65 (75 kDa), MnSOD (˜29 kDa), GFAP (˜50 kDa), and Iba1(˜17 kDa) was quantified by scanning of the X-ray films with GS-700 Imaging Densitometer (BIO-RAD U.S.A.) and a computer program (Molecular Analyst, IBM).
# GFAP = test: spinal expression of GFAP (astrocyte activation); assay type: in vivo, mice; conditions: for GFAP immunoreactivity in superficial layers of the dorsal horn: micrographs
# Method: Animals were rapidly sacrificed (<1 min) in a CO2 chamber and the dorsal portion of the spinal cord lumbar region enlargement removed and stored at −80° C. until used. Cytosolic and nuclear extracts were prepared as previously described (Bethea et al., 1998), with minor modifications. Tissues from each mouse were suspended in extraction Buffer A (0.2 mM PMSF, […], 20 μM leupeptin, 1 mM sodium orthovanadate), homogenized for two minutes, and centrifuged at 1,000×g for ten minutes at 4° C. Supernatants were collected as the cytosolic fraction. The pellets containing nuclei were re-suspended in Buffer B (1% Triton X-100, 150 mM NaCl, 10 mM TRIS-HCl pH 7.4, 1 mM EGTA, 1 mM EDTA, 0.2 mM PMSF, 20 μm leupeptin, 0.2 mM sodium orthovanadate). After centrifugation for thirty minutes at 15,000×g at 4° C., the supernatants were collected as nuclear extracts and then stored at […] for further analysis. The levels of IκB-α, phospho-NF-κB p65 (serine 536), were quantified in cytosolic fraction from spinal cord tissue, while NF-κB p65 levels were quantified in nuclear fraction.
# Iba1 = test: spinal expression of Iba1 (microglia activation); assay type: in vivo, mice; conditions: for Iba1 immunoreactivity in superficial layers of the dorsal horn: micrographs
# ceramide [6] = test: immunohistochemistry for ceramide in spinal cord (Example 3)
# [7] = morphine plus FB1 1 mg/kg/d, n=5, ±SEM
# [8] = acute morphine in tolerant mice vs vehicle
compound,measurement,setting,value
"CCCC[C@@H](C)[C@@H](OC(=O)C[C@@H](CC(=O)O)C(=O)O)[C@H](C[C@@H](C)C[C@H](O)CCCC[C@@H](O)C[C@H](O)[C@H](C)N)OC(=O)C[C@@H](CC(=O)O)C(=O)O [FB1, Fumonisin B1]",responses to acute morphine in control groups vs control groups treated with drug,"mice [1]; Control+Drug groups, no repeated morphine",similar
same,development of antinociceptive tolerance,"mice [1]; co-administration with morphine, i.p., FB1 1 mg/kg, myriocin 0.2 mg/kg, D609 40 mg/kg",prevented the development of antinociceptive tolerance
same,antinociceptive effects when tested alone,mice [1]; drug alone (not shown),no antinociceptive effects
same,increase in ceramide by immunohistochemical analysis and ESI-MS/MS,ceramide [2]; co-administration of morphine with FB1 1 mg/kg,prevented
same,% MPE for acute morphine,"mice [3]; Mor+FB1 groups, FB1 1 mg/kg/day i.p. for six days with morphine minipump",87±4 % MPE
same,% MPE for acute morphine,"mice [3]; control+FB1 groups, FB1 1 mg/kg/day i.p., saline minipump",85±6 % MPE
same,"development of tolerance, dose-dependence","mice [4]; co-administered with morphine, FB1 0.1-1 mg/kg/d, myriocin 0.1-0.4 mg/kg/d, D609 10-40 mg/kg/d, n=10",attenuated in a dose-dependent manner
same,hot plate latencies following s.c. saline,"mice [4]; day five, highest dose of drug, no morphine, n=10",six and seven
same,"difference in responses to acute morphine (0.3-3 mg/kg), drug vs vehicle","mice [4]; highest dose over five days: FB1 1 mg/kg/d, myriocin 0.4 mg/kg/d, D609 40 mg/kg/d, n=10",statistically insignificant
same,antinociceptive effects when tested alone,"mice [4]; highest dose, alone","none of FB1, myriocin, or D609 had antinociceptive effects"
same,% MPE,"mice [4]; tolerant mice, single i.p. dose fifteen minutes before acute morphine 3 mg/kg: FB1 1 mg/kg, myriocin 0.4 mg/kg, D609 40 mg/kg",7±3%
same,appearance of NT staining,peroxynitrite; co-administration of morphine with FB1 1 mg/kg/d,blocked
same,post-translational nitration of MnSOD,[5]; [7],350±45 densitometry units
same,GFAP immunoreactivity in superficial layers of the dorsal horn,GFAP; 1 mg/kg/d of FB1 with morphine,blocked
same,spinal expression of GFAP (activation of astrocytes),GFAP; [7],4627.38±0.483 densitometry units
same,Iba1 immunoreactivity in superficial layers of the dorsal horn,Iba1; 1 mg/kg/d of FB1 with morphine,blocked
same,spinal expression of IBa1 (activation of microglial cell),"Iba1; morphine plus FB1 1 mg/kg/d, n=5",275.53±0.053 densitometry units
same,ceramide immunostaining,"ceramide [6]; co-administered with morphine, FB1 1 mg/kg/d, myriocin 0.4 mg/kg/d, D609 40 mg/kg/d",attenuated; also recorded: abolished the presence of positive staining for ceramide
CN1CC[C@]23c4c5ccc(O)c4O[C@H]2[C@@H](O)C=C[C@H]3[C@H]1C5 [morphine],% MPE for acute morphine,mice [1]; Control group (saline over four days),93±8 % MPE
same,% MPE for acute morphine,mice [1]; Morphine group (morphine 2×10 mg/kg/day over four days),20±14 % MPE
same,antinociceptive effect,"mice [1]; acute morphine 3 mg/kg subcutaneously, forty minutes after dose, hot plate 52° C., n=8",99±2%
same,"ceramide in dorsal horn, immunohistochemistry with anti-ceramide antibody",ceramide [2]; repeated administration of morphine over four days,appearance of ceramide in the superficial layers of the dorsal horn
same,"predominant ceramide species increased in dorsal horn tissues, ESI-MS/MS","ceramide [2]; repeated morphine administration, n=3","18:0, 20:0, and 22:0 ceramide"
same,% MPE for acute morphine,"mice [3]; Morphine groups (morphine 50 mg/kg by osmotic minipump), acute morphine 3 mg/kg i.p., tail flick",15±4 % MPE
same,% MPE for acute morphine,"mice [3]; control groups (saline minipump), acute morphine 3 mg/kg i.p., tail flick, day six",90±5 % MPE
same,percent maximal possible antinociceptive effect,"mice [4]; acute morphine 3 mg/kg in vehicle group (saline over four days), hot plate",90-95%
same,% MPE,"mice [4]; morphine group (tolerant), acute morphine 3 mg/kg on day five",10±2%
same,development of antinociceptive tolerance,mice [4]; repeated administration of morphine (20 mg/kg/d) over four days,led to the development of antinociceptive tolerance
same,% MPE,"mice [4]; vehicle group (saline four days), acute morphine 3 mg/kg on day five",96±3%
same,NT staining in dorsal horn,peroxynitrite; morphine tolerant mice,appearance of NT staining in tolerant mice
same,post-translational nitration of MnSOD,"[5]; mouse, in vivo",850±70 densitometry units
same,GFAP immunoreactivity in superficial layers of the dorsal horn,GFAP; [8],increased
same,spinal expression of GFAP,"GFAP; morphine group, n=5",7343.95±0.527 densitometry units
same,Iba1 immunoreactivity in superficial layers of the dorsal horn,Iba1; [8],increased
same,spinal expression of IBa1,"Iba1; morphine group, n=5, ±SEM",541.29±0.073 densitometry units
same,"ceramide staining in dorsal horn, immunohistochemistry","ceramide [6]; repeated morphine, day five",appearance of ceramide in the superficial layers of the dorsal horn; also recorded: marked appearance of positive staining for ceramide
